In patent USRE37314E, “Pyrimidine derivatives” (Shionogi Seiyaku Kabushiki Kaisha, priority 1991, dated 2001):

Each compound was assayed against T1, HMG-CoA reductase (Rattus norvegicus, UniProt P51639) (assay: HMG-CoA reductase inhibitory effect (rat liver microsome, [14C]HMG-CoA, TLC/scintillation)). Settings: comparative activity, with activity of Mevinolin (sodium salt) as reference drug taken as 100, sodium salt of test compound, 37° C., 30 minutes.
T1 construct: The rat liver microsome sample (100 μl), which was preserved at -80° C; from tissue; host or cells: liver microsomes of Sprague-Dawley rats fed 2% cholestyramine
T1 sequence (P51639 1-887): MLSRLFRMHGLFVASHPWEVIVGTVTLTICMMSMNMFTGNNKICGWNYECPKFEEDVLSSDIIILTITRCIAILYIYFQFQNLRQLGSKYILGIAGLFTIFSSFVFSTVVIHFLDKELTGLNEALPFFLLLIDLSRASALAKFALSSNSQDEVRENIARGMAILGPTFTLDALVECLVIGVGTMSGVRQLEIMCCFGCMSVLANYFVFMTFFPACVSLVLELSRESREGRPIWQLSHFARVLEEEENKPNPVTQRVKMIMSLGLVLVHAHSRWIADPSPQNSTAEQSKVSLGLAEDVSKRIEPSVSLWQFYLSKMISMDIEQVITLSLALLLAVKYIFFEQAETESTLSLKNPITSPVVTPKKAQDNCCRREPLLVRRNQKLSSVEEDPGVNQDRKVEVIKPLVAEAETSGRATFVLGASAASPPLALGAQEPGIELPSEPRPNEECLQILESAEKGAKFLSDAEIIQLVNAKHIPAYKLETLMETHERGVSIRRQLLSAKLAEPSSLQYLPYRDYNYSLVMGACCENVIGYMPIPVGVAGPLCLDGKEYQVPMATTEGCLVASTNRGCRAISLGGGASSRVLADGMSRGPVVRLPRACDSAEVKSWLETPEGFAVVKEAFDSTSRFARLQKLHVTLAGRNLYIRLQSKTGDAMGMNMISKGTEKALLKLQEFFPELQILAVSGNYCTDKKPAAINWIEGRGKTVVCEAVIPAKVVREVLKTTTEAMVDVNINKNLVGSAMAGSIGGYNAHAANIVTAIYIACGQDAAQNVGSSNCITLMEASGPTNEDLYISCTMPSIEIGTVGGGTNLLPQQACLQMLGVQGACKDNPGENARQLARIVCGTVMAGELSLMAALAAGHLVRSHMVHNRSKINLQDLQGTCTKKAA
Format: biochemical
Protocol: The HMG-CoA reductase inhibitory effect
(1) Preparation of rat liver microsome
Sprague-Dawley rats, which were in free access to ordinary dietes containing 2% cholestyramine and water for 2 weeks, were used for the preparation of rat liver microsome. The thus obtained microsome was the purified according to the manner by Juroda et al., Biochem. Biophys. Act, 486, 70 (1977). The microsomal fraction obtained by centrifugation at 105,000×g was washed once with a buffered solution containing 15 mM nicotinamide and 2 mM magnesium chloride (in a 100 mM potassium phosphate buffer, pH 7.4). It was homogenized with a buffer containing nicotinamide and magnesium chloride at the same weight as the liver employed. The thus obtained homogenate was cooled down and kept at -80° C.
(2) Measurement of the HMG-CoA reductase inhibitory activities
The rat liver microsome sample (100 μl), which was preserved at -80° C., was fused at 0° C. and diluted with 0.7 ml of a cold potassium phosphate buffer (100 mM, pH7.4). This was mixed with 0.8 ml of 50 mM EDTA (buffered with the aforementioned potassium phosphate buffer) and 0.4 ml of 100 mM dithiothreitol solution (buffered with the aforementioned potassium phosphate buffer), and the mixture was kept at 0° C. The microsome solution (1.675 ml) was mixed with 670 μl of 25 mM NADPH (buffered with the aformentioned potassium phosphate buffer), and the solution was added to the solution of 0.5 mM [3^-14 ](HMG-CoA (3mCi/mmol). A solution (5 μl) of sodium salt of the test compound dissolved in potassium phosphate buffer is added to 45 μl of the mixture. The resulting mixture was incubated at 37° C. for 30 minutes and cooled. After termination of the reaction by addition of 10 μl of 2N·HCl, the mixture was incubated again at 37° C. for 15 minutes and then 30 μl of this mixture was applied to thin-layer chromatography of silica gel of 0.5 mm in thickness (Merck AG, Art 5744). The chromatograms were developed in toluene/acetone (1/1) and the spot, whose Rf value was between 0.45 to 0.60, were scraped. The obtained products were put into a vial containing 10 ml of scintillator to measure specific radio-activity with scintillation counter.

| Compound | HMG-CoA reductase inhibitory activities |
| --- | --- |
| CC(C)c1nc(N(C)S(C)(=O)=O)nc(-c2ccc(F)cc2)c1C=CC(O)CC(O)CC(=O)O (single isomer, unassigned) [Compound 1a-1] | 442 |
| CSc1nc(-c2ccc(F)cc2)c(C=CC(O)CC(O)CC(=O)O)c(C(C)C)n1 (centres unmarked) [Compound 1a-3] | 385 |
| COc1nc(-c2ccc(F)cc2)c(C=CC(O)CC(O)CC(=O)O)c(C(C)C)n1 (centres unmarked) [Compound 1a-5] | 279 |
| CC(C)c1nc(N(C)NS(C)(=O)=O)nc(-c2ccc(F)cc2)c1C=CC(O)CC(O)CC(=O)O (centres unmarked) [Compound 1a-7] | 260 |
| CC[C@H](C)C(=O)O[C@H]1C[C@@H](C)C=C2C=C[C@H](C)[C@H](CC[C@@H](O)C[C@@H](O)CC(=O)O)[C@H]21 [Mevinolin Na, Mevinolin, reference compound] | 100 |
